Test results taken from ChEMBL document CHEMBL1127508, “Conformationally restricted competitive antagonists of human/rat corticotropin-releasing factor” (J Med Chem, 1994).

Experiments:
[1] = target: T1, Corticotropin-releasing factor receptor 1 (Rattus norvegicus) (UniProt P35353); assay: Intrinsic activity in ACTH release assay as percent CRF response; assay type: functional
T1 sequence (whole entry): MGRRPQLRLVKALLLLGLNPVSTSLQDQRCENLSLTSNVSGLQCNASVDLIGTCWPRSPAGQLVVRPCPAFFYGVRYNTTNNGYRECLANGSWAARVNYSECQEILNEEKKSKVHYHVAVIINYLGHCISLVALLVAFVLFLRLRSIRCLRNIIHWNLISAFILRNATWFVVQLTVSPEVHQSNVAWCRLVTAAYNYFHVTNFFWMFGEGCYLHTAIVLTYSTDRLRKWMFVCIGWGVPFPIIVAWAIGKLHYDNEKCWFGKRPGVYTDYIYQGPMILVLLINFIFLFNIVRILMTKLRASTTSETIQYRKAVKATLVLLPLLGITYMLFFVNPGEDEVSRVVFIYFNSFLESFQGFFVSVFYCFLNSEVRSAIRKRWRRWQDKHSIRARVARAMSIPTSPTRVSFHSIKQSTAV

[2] = target: T1, Corticotropin-releasing factor receptor 1 (Rattus norvegicus); assay: Relative antagonistic potency in vitro measuring alteration of CRF-induced release of ACTH by rat anterior pituitary cells in culture; assay type: functional, cell-based; conditions: Pituitary gland cell

## CCCC[C@H](NC(=O)[C@H](CC(C)C)NC(=O)[C@H](CCCCN)NC(=O)[C@H](CCCN=C(N)N)NC(=O)[C@H](CC(N)=O)NC(=O)[C@H](CO)NC(=O)[C@H](Cc1c[nH]cn1)NC(=O)[C@H](C)NC(=O)[C@H](CCC(N)=O)NC(=O)[C@H](CCC(N)=O)NC(=O)[C@H](C)NC(=O)[C@H](CC(C)C)NC(=O)[C@H](CCC(N)=O)NC(=O)[C@H](CCC(=O)O)NC(=O)[C@H](C)NC(=O)[C@H](CCCN=C(N)N)NC(=O)[C@H](C)NC(=O)[C@H](CCCC)NC(=O)[C@H]1CCC(=O)NCCCC[C@H](NC(=O)[C@H](CCCN=C(N)N)NC(=O)[C@H](CC(C)C)NC(=O)[C@H](CC(C)C)NC(=O)[C@H](Cc2c[nH]cn2)NC(=O)[C@H](N)Cc2ccccc2)C(=O)N[C@@H](C(C)C)C(=O)N[C@@H](CC(C)C)C(=O)N1)C(=O)N[C@@H](CCC(=O)O)C(=O)N[C@H](C(=O)N[C@H](C(=O)C(N)=O)[C@@H](C)CC)[C@@H](C)CC
[1]
  Intrinsic activity: 23
[2]
  Activity: < 0.001

## CCCC[C@H](NC(=O)[C@@H]1CCC(=O)NCCCC[C@H](NC(=O)[C@H](CCCN=C(N)N)NC(=O)[C@H](CC(C)C)NC(=O)[C@H](CC(C)C)NC(=O)[C@H](Cc2c[nH]cn2)NC(=O)[C@H](N)Cc2ccccc2)C(=O)N[C@@H](C(C)C)C(=O)N[C@@H](CC(C)C)C(=O)N1)C(=O)N[C@@H](C)C(=O)N[C@@H](CCCN=C(N)N)C(=O)N[C@@H](C)C(=O)N[C@@H](CCC(=O)O)C(=O)N[C@@H](CCC(N)=O)C(=O)N[C@@H](CC(C)C)C(=O)N[C@@H](C)C(=O)N[C@@H](CCC(N)=O)C(=O)N[C@@H](CCC(N)=O)C(=O)N[C@@H](C)C(=O)N[C@@H](Cc1c[nH]cn1)C(=O)N[C@@H](CO)C(=O)N[C@@H](CC(N)=O)C(=O)N[C@@H](CCCN=C(N)N)C(=O)N[C@@H](CCCCN)C(=O)N[C@@H](CC(C)C)C(=O)N[C@@H](CCCC)C(=O)N[C@@H](CCC(=O)O)C(=O)N[C@H](C(=O)N[C@H](C(=O)C(N)=O)[C@@H](C)CC)[C@@H](C)CC
[1]
  Intrinsic activity: 3
[2]
  Activity: 0.02

## CCCC[C@H](NC(=O)[C@@H]1CC(=O)NCCC[C@H](NC(=O)[C@H](CC(C)C)NC(=O)[C@H](CC(C)C)NC(=O)[C@H](Cc2c[nH]cn2)NC(=O)[C@H](N)Cc2ccccc2)C(=O)N[C@@H](CCC(=O)O)C(=O)N[C@@H](C(C)C)C(=O)N[C@@H](CC(C)C)C(=O)N1)C(=O)N[C@@H](C)C(=O)N[C@@H](CCCN=C(N)N)C(=O)N[C@@H](C)C(=O)N[C@@H](CCC(=O)O)C(=O)N[C@@H](CCC(N)=O)C(=O)N[C@@H](CC(C)C)C(=O)N[C@@H](C)C(=O)N[C@@H](CCC(N)=O)C(=O)N[C@@H](CCC(N)=O)C(=O)N[C@@H](C)C(=O)N[C@@H](Cc1c[nH]cn1)C(=O)N[C@@H](CO)C(=O)N[C@@H](CC(N)=O)C(=O)N[C@@H](CCCN=C(N)N)C(=O)N[C@@H](CCCCN)C(=O)N[C@@H](CC(C)C)C(=O)N[C@@H](CCCC)C(=O)N[C@@H](CCC(=O)O)C(=O)N[C@H](C(=O)N[C@H](C(=O)C(N)=O)[C@@H](C)CC)[C@@H](C)CC
[1]
  Intrinsic activity: 2
[2]
  Activity: 0.001

## CCCC[C@H](NC(=O)[C@H](CC(C)C)NC(=O)[C@H](CCCCN)NC(=O)[C@H](CCCN=C(N)N)NC(=O)[C@H](CC(N)=O)NC(=O)[C@H](CO)NC(=O)[C@H](Cc1c[nH]cn1)NC(=O)[C@H](C)NC(=O)[C@H](CCC(N)=O)NC(=O)[C@H](CCC(N)=O)NC(=O)[C@H](C)NC(=O)[C@H](CC(C)C)NC(=O)[C@H](CCC(N)=O)NC(=O)[C@H](CCC(=O)O)NC(=O)[C@H](C)NC(=O)[C@H](CCCN=C(N)N)NC(=O)[C@H](C)NC(=O)[C@H](CCCC)NC(=O)[C@H]1CC(=O)NCCC[C@H](NC(=O)[C@H](CC(C)C)NC(=O)[C@H](CC(C)C)NC(=O)[C@H](Cc2c[nH]cn2)NC(=O)[C@H](N)Cc2ccccc2)C(=O)N[C@@H](CCC(=O)O)C(=O)N[C@@H](C(C)C)C(=O)N[C@@H](CC(C)C)C(=O)N1)C(=O)N[C@@H](CCC(=O)O)C(=O)N[C@H](C(=O)N[C@H](C(=O)C(N)=O)[C@@H](C)CC)[C@@H](C)CC
[2]
  Activity: 0.006
